The nature of data set [1]: Plasma and brain concentrations (PK) in healthy mice after oral dosing. It counts as in vivo, Nu/Nu mice. The note with it: for Kp at 72 h: brain/plasma. How it is done:
Healthy male Nu/Nu mice were treated orally with either (i) a single dose of 30 mg/kg Compound of formula (I) ([…], 3 mice per time-point), (ii) 30 mg/kg of Compound of formula (I) given once a day for four consecutive days (27 mice in total, 3 mice per time-point), (iii) 30 mg/kg of AZD-1775 (adavosertib, purchased from Combi-Blocks, San Diego, USA) given twice a day for three consecutive days and once on day four (27 mice in total, 3 mice per time-point), (iv) or 80 mg/kg of Zn-c3 (purchased from EOS Med Chem, Jina City, China) given once a day for four consecutive days (27 mice in total, 3 mice per time-point). The doses used for each compound have previously been reported as active dose levels. Compound of formula (I) was formulated as a suspension in 0.5% methylcellulose with 1% Tween 80 and administered at a concentration of 3.0 mg/mL. […] The dosing volume of all formulations was 10 mL/kg. At designated time-points the mice were euthanized by carbon dioxide inhalation, blood samples were collected by cardiac puncture into K2EDTA containing tubes. The tubes were inverted several times, placed on ice and centrifuged within 30 min of collection (4° C. for 5 min at 6000 rpm) to obtain plasma. The plasma samples were snap frozen in dry ice and stored at −80° C. until analysis. The brain was collected, weighed and snap frozen in dry ice until further analysis. To obtain brain homogenates, firstly water was added to each brain (brain weight:water volume=1:4) then the brain was homogenized with a H-speed dispersator (time procedure: homogenizing for 10 s and interval of 10 s per time, total 3-5 times; cleaning procedure for dispersator: Water-Methanol-Ethanol-Water, 10 s each). The brain homogenate samples were transferred to individual tubes and stored at −80° C. prior to analysis. The mouse plasma and brain samples were analysed as follows. For each analytical batch of plasma and brain samples, the standard and quality control (QC) samples were freshly prepared in blank male Nu/Nu mouse plasma (with K2EDTA anticoagulant) and brain homogenate. To an aliquot of each standard, QC, control blank and study samples, internal standard (^13CD6-Compound of formula (I) for Compound of formula (I), terfenadine for AZD-1775 and Zn-c3) in methanol/acetonitrile (1:1, v/v) was added. The samples were mixed for 1 minute and centrifuged at 4000 rpm at 4° C. for 15 minutes. Supernatants were transferred and diluted in MeOH/water (1:1, v/v, with 0.1% FA) prior to LC-MS/MS injection. Chromatographic separation was achieved on an Shimadzu LC-20AD using a Kinetex 2.6μ C18 100A column (50 mm*3.00 mm) for Compound of formula (I) and AZD-1775 samples and a ACE 5 C4 column (50 mm*2.1 mm) for Zn-c3 samples with gradient elution using the following conditions: flow rate: 0.7 mL/min; run time: 3.0 min; mobile phase: A: 5 mM NH4OAc (0.1% FA), B: Acetonitrile (0.1% FA). Detection was accomplished with an AB Sciex 5500 utilizing electrospray MS/MS in positive ion multiple reaction monitoring mode (MRM). The MRM channels were 511.29/98 for Compound of formula (I), 501.47/442.20 for AZD-1775 and 527.36/468.10 for Zn-c3. The MRM channels of internal standard were 518.17/102.10 (^13CD6-Compound of formula (I)) for Compound of formula (I), 472.40/436.40 (terfenadine) for AZD-1775 and Zn-c3. The measured plasma and brain concentrations at each time-point, the nominal sample collection time, and intended dosages were used for pharmacokinetic analysis. The PK parameters of all study compounds were determined by non-compartmental analysis using WinNonlin Version 8.0 (Pharsight).

The nature of data set [2]: Drug concentration in monkey brain and plasma after daily oral administration for 91 days. The class given is in vivo, cynomolgus monkeys. As to conditions: 10 mg/kg oral once a day for 91 days. The procedure: Compound of formula (I) was orally given to 3 female cynomolgus monkeys by gavage once a day for 91 days. The volume of administration was 5 mL/kg, and the vehicle was an aqueous solution of 0.5% (w/v) methylcellulose (cps 400) and 1% (w/v) Tween 80. The Compound of formula (I) dose was 10 mg/kg; this dose level was assessed in this study to be the […] no adverse effect level (NOAEL) based on general toxicology evaluation. The animals were necropsied 24 hours after the last dose after an overnight period without food. A sample from brain tissue (left forebrain) was collected from each animal, snap frozen in liquid nitrogen. and stored frozen at <−50° C. Blood samples were taken from the femoral vein into tubes containing K2EDTA, fully inverted approximately 10 times, and placed on crushed wet ice until centrifugation at 2300 g for 10 minutes at approximately 4° C. The resultant plasma was separated, transferred into polypropylene tubes, and frozen at <−50° C. Tissue and plasma samples were transported frozen on dry ice to the respective sites of analysis.
The monkey plasma samples were analyzed for their contents in Compound of formula (I) and N^32-desmethyl-Compound of formula (I) as follows. The plasma samples were fortified in human K2-EDTA plasma (1:9 monkey:human volume ratio) prior to extraction. All solution preparations and dilutions were conducted under sodium vapor light and in “low-binding” quality polypropylene tubes and deep-well plates. The analytes and internal standards (^13CD6-Compound of formula (I) and D7-N^32-desmethyl-Compound of formula (I)) were extracted by protein precipitation with 5M aqueous urea (40 μL for 50 μL plasma), and then analyzed by LC-MS/MS. Chromatographic separation was achieved on an Synergi Polar-RP, 80A, 4 μm 75×2.00 mm column (Phenomenex) with gradient elution using a mixture of 0.1% formic acid in water as eluent A and 0.1% formic acid in acetonitrile as eluent B (5% B from 0 to 0.50 min, 42% B at 4.5 min, 95% B from 4.60 min to 5.50 min, 5% B at 5.60 min, 100% B at 5.70 min, 5% B at 6.40 min, 100% B at 6.50 min, 5% B at 7.00 min; 800 μl/min, 70° C.). Detection was accomplished with a AB Sciex 6500+ mass spectrometer utilizing electrospray MS/MS in positive ion multiple reaction monitoring mode (MRM). The lower limits of quantification for Compound of formula (I) and N^32-desmethyl-Compound of formula (I) were 5.00 ng/mL and 2.50 ng/mL, respectively.
The monkey brain tissue samples were analyzed for their contents in Compound of formula (I) and N^32-desmethyl-Compound of formula (I) as follows. Tissue samples were homogenized in human plasma (1 mg tissue for 10 μL plasma) at +4° C. using a Precelly Evolution system. The analytes (Compound of formula (I) and N^32-desmethyl-Compound of formula (I)) were extracted by protein precipitation with methanol/acetonitrile (9:1, v:v) containing the internal standards (^13CD6-Compound of formula (I) and D7-N^32-desmethyl-Compound of formula (I)) and then analyzed by UHPLC-MS/MS. Chromatographic separation was achieved on a HSS T3 1.8 μm, 2.1×100 mme column (Waters) with gradient elution using a mixture of 0.1% formic acid in water as eluent A, and 0.1% formic acid in acetonitrile as eluent B (20% B from 0 to 0.50 min, 90% B from 1.80 min to 2.30 min, 20% B at 2.60 min; 0.6 mL/min, room temperature). Detection was accomplished with Xevo TQ-S mass spectrometer (Waters) utilizing electrospray MS/MS in positive ion multiple reaction monitoring mode (MRM). The lower limits of quantification for Compound of formula (I) and N^32-desmethyl-Compound of formula (I) were 55.00 ng/g tissue and 22.00 ng/g tissue, respectively.

Data set [3] is described as follows: CSF and matching plasma concentrations in glioma patients (clinical trial Arms A and B). The class given is in vivo, human. How it is done: In the clinical trial described in Example 9, cerebrospinal fluid (CSF) stabilized with formic acid 0.5% and matching plasma samples collected on K2 EDTA were drawn from 3 patients of Arm A on day 11 of cycle 1 (i.e. 2 patients at 150 mg and 1 patient at 200 mg of Study drug) and 1 patient of Arm B on Week 3 day 1 (i.e. Day 15 after daily doses of Study drug at 90 mg).
Study drug (parent, active moiety) and its active metabolite N^32-desmethyl-Study drug were measured using LC-MS/MS methods. Results were provided in ng per mL of plasma or CSF, and then converted to nmol/L using the molecular weights of the Study drug (511.45 g/mol) and N^32-desmethyl-Study drug (497.42 g/mol).
(§1) Thus, the unbound (or free fraction) of the Study Drug and the N^32-desmethyl-Study drug are calculated.
In CSF, the total protein concentration varies between 0.2% and 0.5% of the total protein concentration of blood (H. Reiber, Clinica Chimica Acta, 2001; Schilde L M et al., PLoS ONE, 2018), therefore the concentration measured in CSF essentially corresponds to the free fraction of the compounds.
For each of the 4 patients, the ratio CSF/plasma of a given compound (Study drug parent or metabolite) was calculated using the CSF concentration of said compound (in nmol/L) and the unbound or free fraction of said compound in plasma (in nmol/L).

The subject of the next data set is plasma proteins. As to the kind of experiment: Binding to plasma proteins. The class given is in vitro ADME. The procedure:
as §1

Where [4] appears, read: 30 mg/kg, bid for 3 days and once on day 4, oral, day 4.
[5] abbreviates: Arm A, 150 mg, day 11 of cycle 1, listed as N^32-desmethyl-Study drug.
Where [6] appears, read: Arm A, 200 mg, day 11 of cycle 1.
Setting [7] is: Arm B, 90 mg daily, Week 3 day 1 (Day 15).

Where “and” joins values, the source holds several entries; their conditions need not be identical. Equal entries are not always repeated. Where two headings read alike, the source gives them in different places.

By Cmax is commonly meant the maximum level reached in the sampled fluid or tissue. Regarding `C=CCn1c(=O)c2cnc(Nc3ccc(N4CCN(C)CC4)cc3)nc2n1-c1cccc(C(C)(C)O)n1` [AZD-1775, adavosertib, reference compound], in data set [1] (setting [4]), the “AUCInf, brain” value is 99.7 ng·h/g; the “AUCLast, brain” value came to 94.5 ng·h/g; the “Cmax, brain” value amounted to 53.9 ng/g. Moreover, in data set [1] (male, Nu/Nu, mouse, po, 30 mg/kg, bid for 3 days and once on day 4, oral, day 4, read-out: Brain to plasma ratio based on AUCInf), the Kp at 72 h turned out to be 0.051. The Kp at 72 h in data set [1] (male, Nu/Nu, mouse, po, 30 mg/kg, bid for 3 days and once on day 4, oral, day 4, read-out: Brain to plasma ratio based on AUCLast) stood at 0.048. The Kp at 72 h in data set [1] (male, Nu/Nu, mouse, po, 30 mg/kg, bid for 3 days and once on day 4, oral, day 4, read-out: Brain to plasma ratio based on Cmax) stood at 0.043. The compound also came in with a Cmax in data set [1] (male, Nu/Nu, mouse, plasma, po, 30 mg/kg, bid for 3 days and once on day 4, oral, day 4) of 1260 ng/mL. Also, the AUC(0-inf) in data set [1] (male, Nu/Nu, mouse, plasma, po, 30 mg/kg, bid for 3 days and once on day 4, oral, day 4, read-out: AUCInf, plasma) was 1960 ng·h/mL. In data set [1] (male, Nu/Nu, mouse, plasma, po, 30 mg/kg, bid for 3 days and once on day 4, oral, day 4, read-out: AUCLast, plasma), the AUC(0-t) was 1950 ng·h/mL.

Consider `Cc1cc(Nc2ncc3c(n2)N(C)CN(c2c(Cl)cccc2Cl)C3=O)ccc1C1CCNCC1` [N^32-Desmethyl-Compound of formula (I)], for which, in data set [2], the “Mean brain:plasma ratio (±SD), at 24 h post last dose (n = 3)” value is on record as 0.73 ± 0.21. In data set [2] (individual animals), the “Brain:plasma concentration ratio, at 24 h post last dose” value is 0.49 and 0.81 and 0.88; the “Plasma concentration at 24 h post last dose” value was 531 ng/mL and 233 ng/mL and 365 ng/mL. Besides, in data set [2] (left forebrain, individual animals), the “Brain concentration at 24 h post last dose” value was 258 ng/g tissue and 188 ng/g tissue and 323 ng/g tissue. The CSF/plasma ratio result in data set [3] (4 patients, Arms A and B) was “about 5%”. In data set [3] (setting [5]), the CSF concentration was 0.23 nmol/L and 0.26 nmol/L; the “CSF to “unbound plasma” ratio” value is 0.06 and 0.05; the “Raw data concentration in CSF” value is 0.114 ng/mL and 0.128 ng/mL; the “Raw data concentration in plasma” value is 17.7 ng/mL and 15.6 ng/mL. For the same compound, the Unbound plasma concentration in data set [3] (setting [5]) was 4.59 nM and 4.05 nM. Further, in data set [3] (setting [6]), the CSF concentration is reported as 0.31 nmol/L, the “CSF to “unbound plasma” ratio” value is recorded as 0.05, the “Raw data concentration in CSF” value is 0.154 ng/mL and the “Raw data concentration in plasma” value turned out to be 23.2 ng/mL. In data set [3] (setting [6]), this compound gave an Unbound plasma concentration of 6.02 nM. Moreover, in data set [3] (setting [7]), the CSF concentration was determined as 0.61 nmol/L, the “CSF to “unbound plasma” ratio” value is 0.05, the “Raw data concentration in CSF” value turned out to be 0.302 ng/mL and the “Raw data concentration in plasma” value was determined as 42.8 ng/mL. This compound came in with an Unbound plasma concentration in data set [3] (setting [7]) of 11.10 nM. Further, the “Active metabolite in plasma as share of Study drug parent” value in data set [3] (patient plasma) is “about 10%”. In addition, the “Bound to plasma proteins” value in the data set with plasma proteins was 87.1%.

`C=CCn1c(=O)c2cnc(Nc3ccc(N4CCN(C)CC4)cc3)nc2n1-c1ccc2c(n1)[C@@](O)(CC)CC2` [Zn-c3, reference compound]: in data set [1] (mouse, in vivo, po, 80 mg/kg), the “AUCInf, brain” value came to 878 ng·h/g; the “AUCInf, plasma” value worked out at 14180 ng·h/mL; the “AUCLast, brain” value was 396 ng·h/g; the “AUCLast, plasma” value came to 14179 ng·h/mL. Also, in data set [1] (mouse, in vivo, po, 80 mg/kg), the “Brain to plasma ratio based on AUCInf” value is reported as 0.062; the “Brain to plasma ratio based on AUCLast” value stood at 0.028; the “Brain to plasma ratio based on Cmax” value amounted to 0.035; the “Cmax, brain” value is given as 97.2 ng/g. Moreover, the “Cmax, plasma” value in data set [1] (mouse, in vivo, po, 80 mg/kg) came out at 2773 ng/mL.
